From patent US10898548B2, “Modulators of protein tyrosine phosphatase and uses thereof” (LEUVAS THERAPEUTICS, priority 2015, dated 2021)
Each block holds one compound with its values, some of them ahead of it.

Tests used:
human primary monocytes [1] = assay: static adhesion of fMLP-stimulated monocytes to ICAM-1; format: cell-based; parameters: unit not given here; conditions: 0.075 micromolar PTPX, 30 minutes; 50 nM fMLP; Control 212.8
human primary monocytes [2] = assay: as above; format: cell-based; parameters: adherent monocytes on ICAM-1: unit not given here
Protocol: We investigated the functional effect of PTPRG activation on integrin activation and mediated adhesion by chemoattractants in human primary monocytes and PMNs in a static and flow adhesion assays. Briefly, human primary monocytes or polymorphonuclear cells were suspended at 5×10^6/ml in standard adhesion buffer. Adhesion assays were performed on 18-well glass slides coated with 1 mg/ml human fibrinogen or with 1 μg/ml human ICAM-1 in PBS; 20 μl of cell suspension were added to the coated wells and stimulated for 1 min at 37° C. with 5 μl of fMLP, 0.05 μM final concentration. After rapid washing, adherent cells were fixed in ice-cold 1.5% glutaraldehyde in PBS, and still images of adherent cells in 0.2 mm^2 fields were acquired al 20× phase contrast magnification, NA 0.40, with a charge-coupled device camera (ICD-42B; Ikegami) connected to an inverted microscope (IX50; Olympus). Image acquisition and computer-assisted enumeration of adherent cells were performed with ImageJ (National Institute of Health).
We then investigated the functional effect of TAT-ICD on integrin activation and mediated adhesion by chemoattractants. Static adhesion assays were performed as described in Example 2. […] Data are mean number of adherent cells in 5 experiments in triplicate.
To evaluate whether JAK2 mediates chemoattractant-induced adhesion of human monocytes to beta-2 integrin substrates human monocytes were treated control buffer or P1 or with the three JAK inhibitors. Briefly, human monocytes were treated with buffer (CTRL=control), or 40 μM P1 or P1-TKIP peptides, 100 μM AG490 or 200 μM WHI-P154 for 1 hour at 37° C. and stimulated with 50 nM fMLP for 60 sec.; data are mean and standard deviation (SD) of 6 experiments in triplicate.
Human primary monocytes were isolated from buffy coats from healthy donors and pre-incubated for 30 minutes at room temperature with our without 0.075 micromolar PTPX. Standard adhesion assays on ICAM-1 coated glass slides. Cell suspensions were added to the coated wells for 1 minute, stimulated for 1 minute at 37° C. with […] fMLP. Non-adherent cells were washed away and adherent cells were fixed in ice-cold 1.5% glutaraldehyde in PBS and adherent cells were counted using computer assisted automatic quantification. Data are from a representative experiment and are the mean and standard deviation of 24 measurements per condition (Table 35).

PTPRG = assay: in vitro phosphatase activity (pNPP) on membranes from human primary monocytes; format: biochemical; conditions: orthovanadate treatment
Protocol: We first tested the biochemical activity of the fusion peptide by performing in vitro assays of phosphatase activity on purified membranes isolated from human primary monocytes compared to membranes isolated from human primary polymorphonuclear cells (PMNs). Human primary monocytes and polymorphonuclear (PMNs) cells were isolated from whole blood of healthy donors. Purity of monocyte preparation was evaluated by flow cytometry after staining with fluorescein isothiocyanate (FITC)-conjugated anti-CD14 antibody and was more than 95%. Isolated cells were kept at 37° C. in standard adhesion buffer (PBS, 1 mM CaCl2, 1 mM MgCl2, 10% FBS, pH 7.2) and used within 1 h.
The phosphatase activity in membrane fractions isolated from human monocytes and PMNs was assessed. […] Cells were then sonicated twice (6 sec, 15% W) and centrifuged at 2000 rpm for 10 minutes. The supernatants were collected and centrifuged at 28000 rpm for 60 minutes. After centrifugation, the supernatants were discarded, and the membrane pellets were dissolved in 20 mM tris pH 7.4. Equal amount of membrane fractions were added to pNPP buffer containing 20 mM tris, 10 mM DTT and 2 mM pNPP. Following, DMSO and peptides were added. After 30 minutes of incubation, levels of de-phosphorylation, in presence or absence of orthovanadate, were measured at 405 nm by a plate reader. Values are absorbance at 405 nn shown as percent fold increase over the blank; mean values of three experiments are shown. *p<0.001 vs vehicle (DMSO).

JAK2 = biological target: T1, JAK2 (Homo sapiens, UniProt O60674); assay: phospho-JAK2 Western Blot on monocytes; format: cell-based; conditions: monocytes, Resting 20.2
T1 construct: endogenous in cells; host or cells: human primary monocytes
Description: (§1) JAK2 regulation by PTPRG as assessed through the high-throughput phospho-proteomics analysis evidenced that PTPRG activation (Example 4, Table 9 and 10) provides a useful example of the exploitation of this analysis system for identification of targets and unexpected indications/uses for known and novel agents that regulate the phoshoproteome. […] Furthermore, the capability of fMLP to trigger JAKs activation has never been observed. The results described in Example 4 unexpectedly implicate JAK2 de-phosphorylation by PTPRG as playing a role in the anti-adhesive role of PTPRG on monocytes. To test this system-generated hypothesis we first set out to define the role of JAK2 in fMLP-triggered rapid adhesion in monocytes. Time course experiments, either performed with ELISA assay or Western Blot. Briefly, purified human monocytes were treated with buffer (resting) or with 50 nM fMLP for the indicated times (Table 12), and the phosphorylation was assessed by p-Jak2 elisa and Western Blot analysis. The JAK2 activation was determined with Elisa Kit JAK2 (pYpY1007/1008) (Invitrogen). Briefly, cells were stimulated with agonist and lysed following manufacturer's protocol; levels of phospho-JAK2 were quantified (absorbance at 450 nm) with a micro-well plate reader (Victor™ X5 Multilabel Plate Reader, Perkin Elmer). For Western blot analysis, cells were lysed in ice-cold 1% Nonidet P-40 buffer, containing phosphatase inhibitors and complete protease inhibitor cocktail (Roche). Total cell lysates were quantified by Bradford assay (Bio-Rad). Equal amounts of total lysates or of isolated membranes (as described in Example 1) were subjected to 10% SDS-PAGE and then blotted. After incubation with anti-PTPRG, anti gp91^Phox, anti phospho-JAK2, anti JAK2 and HRP-linked secondary antibodies (GE Healthcare), immunoreactive bands were visualized by ECL detection (EMD Millipore). Intensities of band signals were quantified by densitometric analysis (Quantity One, Bio-Rad) by using ImageQuant Las4000. Data are mean value of three experiments; the relative ratio of the band intensity of phosphor-JAK2 was normalized to the level of JAK2 band intensities.
To evaluate whether JAK2 mediates fMLP-triggered rapid adhesion in human monocytes, we tested the capability of three JAK inhibitors, AG490, WHI-P154 and P1-TKIP peptide, to block adhesion triggering. Briefly, Monocytes were treated with buffer (resting and Control=CTRL), 100 μM AG490, 40 μM P1 or P1-TKIP peptides, or 200 μM WHI-P154 for 1 hour at 37° C. and stimulated with 50 nM fMLP for 180 sec. Cell lysates were probed with anti phospho-JAK2 and with anti JAK2. Western Blot immuoreactive band quantification; the relative ratio of the band intensity of phospho-JAK2 was normalized to the level of JAK2 band intensities; mean values of three experiments (Table 13).
The impact of TAT-ICD and P1-WD on JAK2 activation by chemoattractants was also evaluated by Western Blot analysis. Briefly, monocytes were treated with buffer (Resting, CTRL), 0.5 uM TAT-ICD, 50 μM TAT peptide, 50 μM P1-WD, P1 or P1-WD scrambled peptides for 1 hour at 37° C. and stimulated with 50 nM fMLP for 180 sec (the resting cells were not stimulated with fMLP). Total lysates were probed with anti phospho-JAK2 or with anti JAK. Western Blot immunoreactive bands were quantified and the relative ratio of the band intensity of phospho-JAK2 was normalized to the level of JAK2 band intensities; data are mean value and standard deviation of three experiments (Table 19).

JAK2 (pYpY1007/1008) = assay: p-JAK2 ELISA on monocytes; format: cell-based, human; conditions: monocytes, Resting 100.0, in % (unit assumed)
Description: as §1
Briefly, p-JAK2 ELISA assay on human monocytes treated with buffer (CTRL=control), 50 μM P1-WD, P1 or P1-WD scrambled peptides (Table 17), or with buffer (CTRL=control), 0.5 uM TAT-ICD or 50 μM TAT peptide (Table 18) for 1 hour at 37° C. and stimulated with 50 nM fMLP for 90 sec. Shown are percentages of fold increases over the control; mean values of 3 experiments in triplicate.

T1 sequence (O60674 whole entry): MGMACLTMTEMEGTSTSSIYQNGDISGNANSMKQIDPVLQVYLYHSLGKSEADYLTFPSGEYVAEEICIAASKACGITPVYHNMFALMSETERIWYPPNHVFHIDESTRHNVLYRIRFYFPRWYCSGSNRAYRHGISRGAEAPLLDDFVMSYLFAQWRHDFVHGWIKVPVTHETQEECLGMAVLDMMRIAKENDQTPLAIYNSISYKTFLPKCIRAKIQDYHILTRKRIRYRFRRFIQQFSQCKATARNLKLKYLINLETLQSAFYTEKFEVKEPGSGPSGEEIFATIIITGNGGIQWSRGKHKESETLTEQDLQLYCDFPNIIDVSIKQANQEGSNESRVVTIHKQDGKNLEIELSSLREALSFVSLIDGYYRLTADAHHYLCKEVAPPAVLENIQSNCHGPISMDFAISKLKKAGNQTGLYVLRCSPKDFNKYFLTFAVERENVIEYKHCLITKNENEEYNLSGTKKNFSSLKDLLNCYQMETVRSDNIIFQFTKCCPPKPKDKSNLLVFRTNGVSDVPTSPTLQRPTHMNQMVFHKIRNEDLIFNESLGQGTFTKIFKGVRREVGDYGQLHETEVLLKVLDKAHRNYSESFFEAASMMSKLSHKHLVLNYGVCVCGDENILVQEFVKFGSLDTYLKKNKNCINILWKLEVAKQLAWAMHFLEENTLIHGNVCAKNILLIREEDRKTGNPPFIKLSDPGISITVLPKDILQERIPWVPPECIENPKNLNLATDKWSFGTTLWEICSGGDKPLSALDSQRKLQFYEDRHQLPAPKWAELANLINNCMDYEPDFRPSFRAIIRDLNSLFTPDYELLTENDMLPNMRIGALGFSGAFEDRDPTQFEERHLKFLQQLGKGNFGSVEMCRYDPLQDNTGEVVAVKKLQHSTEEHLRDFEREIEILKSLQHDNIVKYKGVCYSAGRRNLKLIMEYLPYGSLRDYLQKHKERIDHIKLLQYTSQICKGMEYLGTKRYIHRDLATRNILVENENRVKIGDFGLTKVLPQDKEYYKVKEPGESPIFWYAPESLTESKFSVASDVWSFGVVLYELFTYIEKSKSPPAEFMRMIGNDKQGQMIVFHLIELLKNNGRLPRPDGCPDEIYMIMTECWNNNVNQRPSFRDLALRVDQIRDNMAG

Compound: PTPx: external domain of PTPRG, amino acids 20-736, produced with a histidine tag
adherent monocytes on ICAM-1 (human primary monocytes [1]): 32.7
adherent monocytes on ICAM-1 (human primary monocytes [2]; 0.075 micromolar PTPX, 30 minutes, No Agonist, Control 22.2): 3.4

Compound: [Na+].[Na+].[Na+].[O]=[V]([O-])([O-])[O-] [Orthovanadate, Na3VO4, reference compound]
phosphatase activity elicited in membranes (PTPRG): completely prevented phosphatase activity

phospho-JAK2 band intensity normalized to JAK2, Western Blot (JAK2; 50 nM fMLP 90″): 37.8
phospho-JAK2 band intensity normalized to JAK2, Western Blot (JAK2; 50 nM fMLP 120″): 46.7
phospho-JAK2 band intensity normalized to JAK2, Western Blot (JAK2; 50 nM fMLP 180″): 58.5
Compound: fMLP
phospho-JAK2 level, ELISA (JAK2 (pYpY1007/1008); 50 nM fMLP 90″): 107.3
phospho-JAK2 level, ELISA (JAK2 (pYpY1007/1008); 50 nM fMLP 120″): 128.3
phospho-JAK2 level, ELISA (JAK2 (pYpY1007/1008); 50 nM fMLP 180″): 155.7
increase in monocyte adhesion to ICAM-1 (human primary monocytes [2]; stimulation with fMLP vs no agonist): approximately 10 fold
